{
  "source": "patent US6806257B1",
  "about": "“Flavones as inducible nitric oxide synthase inhibitors, cyclooxygenase-2 inhibitors and potassium channel activators” (priority 1999, dated 2004)",
  "key": {"iNOS [1]": {"tested_on": "iNOS", "test": "LPS-induced iNOS expression in RAW264.7 macrophages (western/northern blot)", "type": "cell-based, mouse", "description": "(§1) Cells. RAW264.7, a mouse macrophage cell line, was obtained from American Type Culture Collection. Cells were cultured in RPMI-1640 medium (available from Gibco Life Technology, in Gaithersburg, Md.) supplemented with 2 mM L-glutamine, antibiotics (100 units/ml penicillin-A and 100 units/ml streptomycin) and 10% heat-inactivated fetal bovine serum (Gibco/BRL) and maintained at 37° C in a humidified incubator containing 5% CO2.\n(§2) Western blots. Total cellular extract, cytosolic fractions (for IkB) and nuclear fraction (for p65 antibody) were prepared according to Muller et al., Immunobiology, 187, 233-256, 1993 and separated on sodium dodecyl sulfatepolyacrylamide minigels (8% for iNOS or COX-2, and 10% for IkB or p65) and transferred to immobilon polyvinylidene difluoride membranes (Millipore, Bedford, Mass.). The membrane was incubated overnight at 4° C. with 1% bovine serum albumin and then incubated with anti-iNos, COX-2, α-Tubulin monoclonal antibodies (Transduction Laboratories, Lexington, Ky.), anti-IkB or anti-p65 polyclonal antibodies (Santa Cruz Biochemicals, Santa Cruz, Calif.). iNOS, IkB, p65, Cox-2, α-Tubulin were detected by NBT and BCIP staining (Sigma Chemical Co., St. Louis, Mo.).\nNorthern blot analysis. Total RNA (20 μg/lane) were separated by electrophoresis on 1.2% agarose gel containing 6.7% formaldehyde and transformed to a Hybond-N nylon membrane (American Life Science) in 20×standard saline citrate (3 M sodium chloride and 0.3 M sodium citrate, pH 7.0). After heating at 80° C. for 2 hours and prehybridization for 4 hours, the filters were hybridized with ^32P-labeled murine iNOS cDNA probes at a concentration of 3×10^6 cpm/ml for 16-18 hours at 42° C. The probe was labeled with [α-32P] dCTP by using Random Primer labeling kit (Stratagene, La Jolla, Calif.). Then, the filters were washed, dried and autoradiographed with Kodak-X-Omat XAR-film using intensifying screens at −80° C."}, "NF-kB (p65) / IkB": {"tested_on": "NF-kB (p65) / IkB", "test": "Nuclear p65 / cytosolic IkB western blot in LPS-treated RAW264.7 macrophages", "type": "cell-based, mouse", "conditions": "20 μg/ml, 100 ng/ml LPS for 30 minutes", "description": "as §2\nNF-kB is a transcription factor that is activated in response to stimulation by LPS, and activation of NF-kB is an essential factor in inducing iNOS gene expression in macrophages (Kim, Y. M., Biochem. Biophys. Res. Commun. 236, 655-660, 1997). To assess the effect of these compounds (20 μg/ml) on early stage of iNOS gene expression, the activation of NF-kB in RAW264.7 macrophages was examined using the electrophoretic mobility shift assay (EMSA) (FIGS. 6i and 6ii)."}, "[2]": {"tested_on": "LPS-induced NO production in RAW264.7 macrophages", "test": "LPS-induced nitrite (NO) production in RAW264.7 macrophages, Griess reaction", "type": "cell-based, mouse", "conditions": "5, 10 or 20 μg/ml together with 100 ng/ml LPS for 24 hours", "description": "as §1\nNitrite assay. The nitrite concentration in the medium was measured as an indicator of NO production according to the Griess reaction (Kim et al., J. Immunol. 153: 4741-4748). One hundred microliters of each supernatant was. mixed with the same volume of Griess reagent (1% sulfanilamide in 5% phosphoric acid and 0. 1% naphthylethylenediamine dihydrochloride in water); absorbency of the mixture at 550 nm was determined with an enzyme-linked immunosorbent assay plate reader (Dynatech MR-7000; Dynatech Labs, Chantilly, Va.).\nThe effects of flavonoids, ellagitannins, anthraquinones on LPS-induced NO production in macrophages were studied as follows. The chemical structures of two flavonoids (myricitrin, N1; oroxylin A, N2) four ellagitannins (penta-O-galloyl-β-glucopyranose, N3; woodfordin C, N4; onothein B, N5; cuphiin, N6), and two anthraquinones (emodin, N7; physcion, N8) that were used in the present study were shown in FIG. 1. The effects of these eight compounds on NO production in RAW264.7 macrophages were investigated. The accumulated nitrite in the culture medium was used as an index for NO synthesis from these cells. […]"}, "[3]": {"tested_on": "porcine cerebral arteries", "test": "In vitro tissue bath vasorelaxation of precontracted porcine cerebral arteries", "conditions": "concentrations as high as 100 μM, n=4"}, "iNOS [4]": {"tested_on": "iNOS", "test": "LPS-induced nitrite production and iNOS expression in Bcl-2-overexpressed RAW264.7 cells", "type": "cell-based, mouse", "conditions": "20 μg/ml, LPS 100 ng/ml, Bcl-2/RAW-1 and Bcl-2/RAW-2 cells"}, "RAW264.7 cells": {"tested_on": "RAW264.7 cells", "conditions": "mouse, 20 μg/ml"}},
  "data": [
    {"smiles": "Cc1cc(O)c2c(c1)C(=O)c1cc(O)cc(O)c1C2=O", "note": "[emodin, Emodin, reference compound]", "values": [
      {"measurement": "blocking LPS-induced iNOS gene expression, comparison among compounds tested", "setting": "iNOS [1]", "result": "potent inhibitory effect, comparable to oroxylin A"},
      {"measurement": "LPS-induced iNOS protein", "setting": "iNOS [1]; 100 ng/ml LPS, western blot", "result": "inhibited LPS-induced iNOS protein in a concentration-dependent manner"},
      {"measurement": "LPS-induced increase of nuclear p65 and decrease of cytosolic IkB", "setting": "NF-kB (p65) / IkB", "result": "did not block"},
      {"measurement": "LPS-induced nitrite production", "setting": "[2]", "result": "significant inhibition"},
      {"measurement": "relaxation of cerebral arteries", "setting": "[3]", "result": "very small relaxation or no response"},
      {"measurement": "LPS-induced iNOS gene expression", "setting": "iNOS [4]", "result": "inhibited"},
      {"measurement": "LPS-induced nitrite production", "setting": "iNOS [4]", "result": "inhibited"},
      {"measurement": "cytotoxity by MTT assay", "setting": "RAW264.7 cells", "result": "~30", "unit": "%"}
    ]}
  ]
}
